Results: US20130045985A1, “N-(5-FLUORO-2-((4-METHYLBENZYL)OXY)PYRIMIDIN-4-YL)BENZAMIDE DERIVATIVES” (Dow AgroSciences LLC, priority 2011, published 2013)

Legend:
[1] = tested on: Mycosphaerella graminicola; Anamorph: Septoria tritici; Bayer Code SEPTTR; assay: Fungicidal activity: leaf blotch of wheat (SEPTTR), one-day protectant and three-day curative; type: in vivo, Septoria tritici on wheat plants (variety Yuma); conditions: wheat plants, rating of % disease control
Method: Evaluation of Fungicidal Activity: Leaf Blotch of Wheat (Mycosphaerella graminicola; Anamorph: Septoria tritici; Bayer Code SEPTTR)
Wheat plants (variety Yuma) were grown from seed in a greenhouse in 50% mineral soil/50% soil-less Metro mix until the first leaf was fully emerged, with 7-10 seedlings per pot. These plants were inoculated with an aqueous spore suspension of Septoria tritici either prior to or after fungicide treatments. After inoculation the plants were kept in 100% relative humidity (one day in a dark dew chamber followed by two to three days in a lighted dew chamber) to permit spores to germinate and infect the leaf. The plants were then transferred to a greenhouse for disease to develop.
The following table presents the activity of typical compounds of the present disclosure when evaluated in these experiments. The effectiveness of the test compounds in controlling disease was determined by assessing the severity of disease on treated plants, then converting the severity to percent control based on the level of disease on untreated, inoculated plants.
In each case of Table I the rating scale is as follows: […]

## Cc1ccc(COc2ncc(F)c(NC(=O)c3ccccc3)n2)cc1 [Cmpd 1, N-(5-fluoro-2-(4-methylbenzyloxy)pyrimidin-4-yl)benzamide]
[1]; One-Day Protectant (1DP)
  SEPTTR 100 PPM 1DP: B (51-75)
[1]; Three-Day Curative (3DC)
  SEPTTR 100 PPM 3DC: A (76-100)
other
  melting point: 93 to 95 °C
